From patent US10266497B2 (ABIDE THERAPEUTICS, INC., priority 2017, dated 2019)
Read-outs that look alike come from different tables or passages of the source.

Assays:
MAGL [1] = biological target: T1, MAGL (Homo sapiens, UniProt Q99685); test: In vitro competitive activity-based protein profiling, MAGL, human; conditions: read-out: MAGL % inh. 1 μM (human)
T1 sequence (Q99685 1-303): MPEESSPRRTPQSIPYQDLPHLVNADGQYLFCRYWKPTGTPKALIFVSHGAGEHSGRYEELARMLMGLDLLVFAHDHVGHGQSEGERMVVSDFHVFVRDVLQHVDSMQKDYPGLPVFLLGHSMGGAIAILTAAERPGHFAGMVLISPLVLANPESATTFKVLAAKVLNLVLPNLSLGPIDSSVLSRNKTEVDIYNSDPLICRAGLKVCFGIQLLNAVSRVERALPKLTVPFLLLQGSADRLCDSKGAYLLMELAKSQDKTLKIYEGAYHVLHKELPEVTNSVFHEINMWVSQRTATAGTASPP

MAGL [2] = biological target: T2, MAGL (Mus musculus, UniProt O35678); test: Mouse brain proteomes from inhibitor treated mice (oral gavage, sacrificed 4 h after administration); format: in vivo; parameters: mouse brain membrane fraction for mouse assays; from tissue; host or cells: mouse brain (membrane fraction in vitro; brain proteomes of treated C57Bl/6J mice in vivo); conditions: 5 mg/kg oral gavage, brain proteome 4 h after administration, read-out: MAGL % inh. 5 mg/kg (mouse)
T2 sequence (O35678 1-303): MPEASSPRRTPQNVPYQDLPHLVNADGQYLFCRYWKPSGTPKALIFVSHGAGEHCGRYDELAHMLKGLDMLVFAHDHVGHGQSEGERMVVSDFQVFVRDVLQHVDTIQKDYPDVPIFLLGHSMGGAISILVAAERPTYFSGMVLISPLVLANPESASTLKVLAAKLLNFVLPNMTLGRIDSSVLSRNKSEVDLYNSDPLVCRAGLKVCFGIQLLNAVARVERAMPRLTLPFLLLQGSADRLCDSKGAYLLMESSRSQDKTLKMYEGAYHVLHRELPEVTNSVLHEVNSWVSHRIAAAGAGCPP

MAGL [3] = biological target: T2, MAGL; test: In vitro competitive activity-based protein profiling, MAGL, mouse; conditions: read-out: MAGL % inh. 1 μM (mouse)
FAAH [4] = biological target: T3, FAAH (Mus musculus, UniProt O08914); test: In vitro competitive activity-based protein profiling, FAAH, mouse; conditions: read-out: FAAH % inh. 1 μM (mouse)
T3 sequence (O08914 1-579): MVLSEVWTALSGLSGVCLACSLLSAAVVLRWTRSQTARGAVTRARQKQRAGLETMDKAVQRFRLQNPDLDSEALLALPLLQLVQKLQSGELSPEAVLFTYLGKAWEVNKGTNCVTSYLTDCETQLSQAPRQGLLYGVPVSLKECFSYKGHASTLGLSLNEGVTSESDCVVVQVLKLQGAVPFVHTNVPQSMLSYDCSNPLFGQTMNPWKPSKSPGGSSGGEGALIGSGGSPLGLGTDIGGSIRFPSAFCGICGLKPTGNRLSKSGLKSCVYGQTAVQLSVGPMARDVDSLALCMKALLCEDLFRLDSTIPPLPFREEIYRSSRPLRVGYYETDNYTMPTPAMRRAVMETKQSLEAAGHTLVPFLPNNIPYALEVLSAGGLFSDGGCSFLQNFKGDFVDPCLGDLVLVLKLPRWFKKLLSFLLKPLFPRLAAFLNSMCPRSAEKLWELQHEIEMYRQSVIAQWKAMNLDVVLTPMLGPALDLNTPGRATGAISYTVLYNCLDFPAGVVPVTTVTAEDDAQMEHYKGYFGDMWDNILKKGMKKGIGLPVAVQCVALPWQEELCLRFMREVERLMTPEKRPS
Experimental: Biological Evaluation In Vitro Competitive Activity-Based Protein Profiling.
Proteomes (mouse brain membrane fraction for mouse assays; human prefrontal cortex membrane fractions for human assays) (50 mL, 1.0 mg/mL total protein concentration) were preincubated with varying concentrations of inhibitors at 37° C. After 30 min, FP-Rh (1.0 mL, 50 mM in DMSO) was added and the mixture was incubated for another 30 min at 37° C. Reactions were quenched with SDS loading buffer (15 μL—4λ) and run on SDS-PAGE.

FAAH [5] = biological target: T4, FAAH (Homo sapiens, UniProt O00519); test: In vitro competitive activity-based protein profiling, FAAH, human; conditions: for inhibition at 1 µM: read-out: FAAH % inh. 1 μM (human)
T4 sequence (O00519 1-579): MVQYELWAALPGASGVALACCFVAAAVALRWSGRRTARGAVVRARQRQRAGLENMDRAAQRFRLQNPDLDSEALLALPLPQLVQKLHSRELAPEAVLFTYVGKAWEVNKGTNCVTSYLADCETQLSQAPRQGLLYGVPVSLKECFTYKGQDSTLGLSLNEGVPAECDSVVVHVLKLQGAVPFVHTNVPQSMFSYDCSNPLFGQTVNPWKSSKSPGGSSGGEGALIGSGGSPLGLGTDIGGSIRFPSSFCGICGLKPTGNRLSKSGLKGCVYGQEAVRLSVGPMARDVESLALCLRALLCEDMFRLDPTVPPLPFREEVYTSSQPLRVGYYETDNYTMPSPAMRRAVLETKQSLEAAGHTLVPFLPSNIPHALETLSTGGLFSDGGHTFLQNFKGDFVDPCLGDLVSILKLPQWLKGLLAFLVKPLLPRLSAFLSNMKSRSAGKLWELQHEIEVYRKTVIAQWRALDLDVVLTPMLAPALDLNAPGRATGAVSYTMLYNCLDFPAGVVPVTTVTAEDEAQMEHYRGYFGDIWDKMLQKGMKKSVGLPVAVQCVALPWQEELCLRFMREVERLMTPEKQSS

SMILES	inhibition at 1 µM (MAGL [1]) [%]	inhibition at 5 mg/kg (MAGL [2]) [%]	inhibition at 1 µM (MAGL [3]) [%]	inhibition at 5 mg/kg (MAGL [2]; C57Bl/6J mice) [%]	inhibition at 1 µM (FAAH [4]) [%]	inhibition at 1 µM (FAAH [5]) [%]	IC50 (FAAH [5]) [nM]
CN(Cc1cccc(C(F)(F)F)c1N1CCCC1)C1(C)CCN(C(=O)n2ccc(C(=O)O)n2)CC1 [Example 382, 1-(4-methyl-4-(methyl(2-(pyrrolidin-1-yl)-3-(trifluoromethyl)benzyl)amino)piper-idine-1-carbonyl)-1H-pyrazole-3-carboxylic acid]	> 75	0 to 25	> 75	–	–	–	–
O=C(O)c1ccn(C(=O)N2CCC3(CCN(Cc4cc(Cl)cc(Cl)c4Cl)C3)CC2)n1 [Example 337, 1-(2-(2,3,5-trichlorobenzyl)-2,8-diazaspiro[4.5]decane-8-carbonyl)-1H-pyrazole-3-carboxylic acid]	> 75	0 to 25	> 75	–	–	–	–
O=C(O)c1ccn(C(=O)N2CCN(Cc3cc(Cl)cc(-c4cncnc4)c3)CC2)n1 [Example 269, 1-(4-(3-chloro-5-(pyrimidin-5-yl)benzyl)piperazine-1-carbonyl)-1H-pyrazole-3-carboxylic acid]	> 75	0 to 25	> 75	–	–	–	–
C[C@@H]1CN(Cc2ccc(C(F)(F)F)cc2N2CCCC2)CCN1C(=O)n1ccc(C(=O)O)n1 [Example 327, (R)-1-(2-methyl-4-(2-(pyrrolidin-1-yl)-4-(trifluoromethyl)benzyl)piperazine-1-carbonyl)-1H-pyrazole-3-carboxylic acid]	> 75	0 to 25	> 75	–	–	–	–
C[C@H]1CN(Cc2ccc(C(F)(F)F)cc2N2C3CCC2COC3)CCN1C(=O)n1ccc(C(=O)O)n1 [Example 395, 1-((2S)-4-(2-(3-oxa-8-azabicyclo[3.2.1]octan-8-yl)-4-(trifluoromethyl)benzyl)-2-methylpiperazine-1-carbonyl)-1H-pyrazole-3-carboxylic acid]	> 75	–	> 75	0 to 25	–	–	–
O=C(O)c1ccn(C(=O)N2CCC3(CCCN3Cc3ccc(C(F)(F)F)cc3N3CCCCC3)CC2)n1 [Example 404, 1-(1-(2-(piperidin-1-yl)-4-(trifluoromethyl)benzyl)-1,8-diazaspiro[4.5]decane-8-carbonyl)-1H-pyrazole-3-carboxylic acid]	> 75	–	> 75	0 to 25	–	–	–
CC(C)c1cccc(O[C@H]2C[C@@H]3CN(C(=O)n4ccc(C(=O)O)n4)C[C@@H]3C2)c1 [Example 220, 1-(trans-5-(3-isopropylphenoxy)ocatahydrocyclo-penta[c]pyrrole-2-carbonyl)-1H-pyrazole-3-carboxylic acid]	> 75	25 to 50	> 75	–	–	–	–
C[C@@H]1CN(Cc2ccc(-c3ccccc3)cc2Cl)CCN1C(=O)n1ccc(C(=O)O)n1 [Example 291, (R)-1-(4-((3-chloro-[1,1′-biphenyl]-4-yl)methyl)-2-methylpiperazine-1-carbonyl)-1H-pyrazole-3-carboxylic acid]	> 75	25 to 50	> 75	–	–	–	–
C[C@@H]1CC[C@@H](C)N1c1cc(C(F)(F)F)ccc1CN1CCN(C(=O)n2ccc(C(=O)O)n2)CC1 [Example 359, 1-(4-(2-((2R,5R)-2,5-dimethylpyrrolidin-1-yl)-4-(trifluoromethyl)benzyl)piperazine-1-carbonyl)-1H-pyrazole-3-carboxylic acid]	> 75	0 to 25	> 75	–	–	–	–
CC(C)(O)COc1cccc(O[C@H]2C[C@@H]3CN(C(=O)n4ccc(C(=O)O)n4)C[C@@H]3C2)c1Cl [Example 451, 1-(trans-5-(2-chloro-3-(2-hydroxy-2-methylpropoxy)phenoxy)octahydro-cyclopenta[c]pyrrole-2-carbonyl)-1H-pyrazole-3-carboxylic acid]	> 75	–	> 75	0 to 25	–	–	–
CNC(=O)c1ccn(C(=O)N2CC3CN(Cc4ccc(Cl)cc4)CC3C2)n1 (stereo not drawn) [Example 424, 1-(5-(4-chlorobenzyl)octahydropyrrolo [3,4-c]pyrrole-2-carbonyl)-N-methyl-1H-pyrazole-3-carboxamide]	–	–	> 75	> 75	–	–	–
NC(=O)c1ccn(C(=O)N2CCC3(CCN(Cc4cc(Cl)ccc4Cl)C3)C2)n1 (stereo not drawn) [Example 426, 1-(7-(2,5-dichlorobenzyl)-2,7-diazaspiro[4.4]non-ane-2-carbonyl)-1H-pyrazole-3-carboxamide]	–	–	> 75	> 75	–	–	–
NC(=O)c1ccn(C(=O)N2CCC3(CCN(Cc4cc(Cl)cc(C(F)(F)F)c4)C3)C2)n1 (stereo not drawn) [Example 433, 1-(7-(3-chloro-5-(trifluoromethyl)benzyl)-2,7-diazaspiro[4.4]non-ane-2-carbonyl)-1H-pyrazole-3-carboxamide]	–	–	> 75	> 75	–	–	–
O=C(O)c1ccn(C(=O)N2CC3CN(Cc4cccc(-c5ccccc5)c4)CC3C2)n1 (stereo not drawn) [Example 156, 1-(5-([1,1′-biphenyl]-3-ylmethyl)octahydropyrrolo[3,4-c]pyrrole-2-carbonyl)-1H-pyrazole-3-carboxylic acid]	> 75	–	> 75	–	> 75	0 to 25	–
O=C(O)c1ccn(C(=O)N2CCC3(CCN(Cc4ccc(C(F)(F)F)cc4N4CCC(F)CC4)CC3)C2)n1 [Example 186, 1-(8-(2-(4-fluoropiperidin-1-yl)-4-(trifluoromethyl)benzyl)-2,8-diazaspiro[4.5]decane-2-carbonyl)-1H-pyrazole-3-carboxylic acid]	50 to 75	–	> 75	–	0 to 25	0 to 25	–
CN(Cc1cc(Cl)ccc1C(F)(F)F)C1CCN(C(=O)n2cc(Cl)c(C(=O)O)n2)CC1 [Example 112, 4-chloro-1-(4-((5-chloro-2-(trifluoromethyl)benzyl)(methyl)amino)piperidine-1-carbonyl)-1H-pyrazole-3-carboxylic acid]	> 75	–	> 75	–	> 75	> 75	100 to 1000
O=C(O)c1nn(C(=O)N2CCC3(CC2)CN(Cc2cc(Cl)ccc2C(F)(F)F)C3)cc1Cl [Example 134, 4-chloro-1-(2-(5-chloro-2-(trifluoromethyl)benzyl)-2,7-diazaspiro[3.5]non-ane-7-carbonyl)-1H-pyrazole-3-carboxylic acid]	> 75	–	> 75	–	50 to 75	> 75	100 to 1000
